According to paper PMC4926365, “Expression and Characterization of a Novel Glycerophosphodiester Phosphodiesterase from Pyrococcus furiosus DSM 3638 That Possesses Lysophospholipase D Activity” (International Journal of Molecular Sciences, 2016):

Target: T1, pfGDPD (Pyrococcus furiosus, UniProt Q8TZI9)
T1 construct: gene PF2003; full length 253 aa, no signal peptide; synthetic gene in pET28a, N- and C-terminal His6 tags kept; E. coli SHuffle T7; Ni-NTA; 34,059 Da
T1 sequence (Q8TZI9 1-253): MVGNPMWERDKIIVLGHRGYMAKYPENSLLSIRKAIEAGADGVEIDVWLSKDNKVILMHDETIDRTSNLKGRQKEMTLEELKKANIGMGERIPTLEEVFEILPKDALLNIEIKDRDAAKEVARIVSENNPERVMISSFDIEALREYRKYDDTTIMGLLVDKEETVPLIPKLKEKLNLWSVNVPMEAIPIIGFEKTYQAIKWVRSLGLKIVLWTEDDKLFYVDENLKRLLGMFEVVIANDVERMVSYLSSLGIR
Test: colorimetric p-nitrophenol release
Type: biochemical
Settings: Mn2+ (best at 5 mM), 50 mM Tris-HCl pH 8.5, 55 °C

O=[N+]([O-])c1ccc(OP(=O)(O)Oc2ccc([N+](=O)[O-])cc2)cc1 [bis(p-nitrophenyl) phosphate]
colorimetric p-nitrophenol release: The optimal temperature of recombinant pfGDPD was determined using BpNPP as substrate
